Laboratory results as given in ChEMBL document CHEMBL4819041 (J Med Chem, 2021).

Legend:
Assay type in all cases: organism-based
Details in all cases: in vivo
[1] = Toxicity in Balb/c nude mouse xenografted with human MDA-MB-231 cells assessed as dose toleration at 20 mg/kg, ip QD
[2] = Toxicity in Balb/c nude mouse xenografted with human MDA-MB-231 cells assessed as normal inquisitiveness at 20 mg/kg, ip QD
[3] = Toxicity in Balb/c nude mouse xenografted with human MDA-MB-231 cells assessed as normal feeding at 20 mg/kg, ip QD
[4] = Toxicity in Balb/c nude mouse xenografted with human MDA-MB-231 cells assessed as change in body weight at 20 mg/kg, ip QD
[5] = Toxicity in Balb/c nude mouse xenografted with human MDA-MB-231 cells assessed as adverse effect at 20 mg/kg, ip QD

Measured: Activity

CNCc1ccccc1CN(CC(=O)Nc1ccc2c(c1)CC1(C2)C(=O)Nc2ncccc21)C(=O)C(C)(C)C (stereo not given)
Non-Toxic: all assays above
